Results as given in patent publication US10538555B2, “Macrocyclic inhibitors of the PD-1/PD-L1 and CD80(B7-1)/PD-L1 protein/protein interactions” (BRISTOL-MYERS SQUIBB COMPANY, priority 2014, dated 2020).
*1 amine or outer side, *2 acyl side, *3 side chain or, on linkers, in order; H or OH if unused. Where a SMILES comes first, the peptide text is derived from it. Bridges are numbered along the chain shown (N, C = ends). [ ]: non-standard residue; d: D form. ξ: configuration not given here. Trp(1-CH2COOH) = N[C@@H](Cc1cn(CC(=O)O)c2ccccc12)C(=O)O; Phe(3,4,5-F3) = N[C@@H](Cc1cc(F)c(F)c(F)c1)C(=O)O; d(cisHyp) = O=C(O)[C@H]1C[C@@H](O)CN1; Bta = N[C@@H](Cc1csc2ccccc12)C(=O)O; NMeY = CN[C@@H](Cc1ccc(O)cc1)C(=O)O; Hyp = O=C(O)[C@@H]1C[C@@H](O)CN1; NMeF = CN[C@@H](Cc1ccccc1)C(=O)O; X1 = O=C([C@H]1COCCN1[*:1])[*:2]; dHyp = O=C(O)[C@H]1C[C@H](O)CN1; NMehSer = CN[C@@H](CCO)C(=O)O; NMeNle = CCCC[C@H](NC)C(=O)O; Tle = CC(C)(C)[C@H](N)C(=O)O; Pip = O=C(O)[C@@H]1CCCCN1; dPip = O=C(O)[C@H]1CCCCN1; NMeA = CN[C@@H](C)C(=O)O; Aze = O=C(O)[C@@H]1CCN1; Dab = NCC[C@H](N)C(=O)O; Dap = NC[C@H](N)C(=O)O; ξC = NC(CS)C(=O)O; Sar = CNCC(=O)O

Molecular target: T1, Human PD-L1/PD-1 (Homo sapiens, UniProt Q9NZQ7)
T1 construct: TVMV protease cleavage site (C); made in house; host or cells: HEK293T cells
T1 sequence (Q9NZQ7 with tags, fused parts or gaps): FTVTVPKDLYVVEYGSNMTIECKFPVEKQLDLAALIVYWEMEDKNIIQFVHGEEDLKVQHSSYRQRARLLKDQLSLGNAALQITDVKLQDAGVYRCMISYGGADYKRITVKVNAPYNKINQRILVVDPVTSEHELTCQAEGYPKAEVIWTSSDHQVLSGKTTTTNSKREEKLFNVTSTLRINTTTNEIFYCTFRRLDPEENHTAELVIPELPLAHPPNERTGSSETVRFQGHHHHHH
Assay: HTRF Human PD-L1/PD-1 binding assay (PD-1-Ig/PD-L1-His)
Conditions: PD-L1-His 10 nM, PD-1-Ig 20 nM; class symbol; read-out: HTRF Human PD-L1/PD-1 Binding Assay IC50 Range
Procedure, shortened: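 Soluble HEK293T-expressed proteins: hPD-L1-His 10 nM, hPD-1-Ig 20 nM final. Cpd + PD-L1 15 min, + PD-1 15 min, + Eu anti-Ig 1 nM/APC anti-His 20 nM 30 min. Buffer dPBS, 0.1% BSA, 0.05% Tween-20. TR-FRET 665/620.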

SMILES	IC50
CCCC[C@H]1C(=O)N2CCC[C@@H]2C(=O)N2CC[C@H]2C(=O)N[C@@H](C(C)C)C(=O)N(C)[C@@H](Cc2ccccc2)C(=O)N[C@@H](Cc2ccc(O)cc2)C(=O)N2CCCC[C@@H]2C(=O)N[C@@H](Cc2c[nH]c3ccccc23)C(=O)N[C@@H](Cc2ccc(O)cc2)C(=O)N[C@@H](CC(C)C)C(=O)N[C@H](C(=O)NCC(N)=O)CSCC(=O)N[C@@H](Cc2cc(F)c(F)c(F)c2)C(=O)N(C)[C@@H](Cc2ccccc2)C(=O)N1C [Example 3221] ({CH2CO}-[Phe(3,4,5-F3)][NMeF][NMeNle][dP][Aze]V[NMeF]Y[dPip]WYLCG-NH2; thioether N-13)	10 to 99.9 nM
CCCC[C@H]1C(=O)N2CCC[C@@H]2C(=O)N[C@@H](CO)C(=O)N[C@@H](C(C)C)C(=O)N(C)[C@@H](Cc2ccccc2)C(=O)N[C@@H](Cc2ccc(O)cc2)C(=O)N2CCC[C@@H]2C(=O)N[C@@H](Cc2c[nH]c3ccccc23)C(=O)N[C@@H](Cc2ccc(O)cc2)C(=O)N[C@@H](CC(C)C)C(=O)N[C@H](C(=O)NCC(N)=O)CSCC(=O)N[C@@H](Cc2cc(F)c(F)c(F)c2)C(=O)N(C)[C@@H](Cc2ccccc2)C(=O)N1C [Example 10066] ({CH2CO}-[Phe(3,4,5-F3)][NMeF][NMeNle][dP]SV[NMeF]Y[dP]WYLCG-NH2; thioether N-13)	1 to 9.9 nM
CCCC[C@H]1C(=O)N(C)[C@@H](CCCC)C(=O)N[C@@H](CCC(=O)O)C(=O)N[C@H](C(=O)NCC(N)=O)CSCC(=O)N[C@@H](Cc2ccc(O)cc2)C(=O)N(C)[C@@H](C)C(=O)N[C@@H](CC(N)=O)C(=O)N2CCC[C@H]2C(=O)N[C@@H](CO)C(=O)N[C@@H](CC(C)C)C(=O)N2C[C@H](O)C[C@H]2C(=O)N[C@@H](Cc2c[nH]c3ccccc23)C(=O)N[C@@H](CCN)C(=O)N[C@@H](Cc2cn(CC(=O)O)c3ccccc23)C(=O)N1C [Example 6136] ({CH2CO}-Y[NMeA]NPSL[Hyp]W[Dab][Trp(1-CH2COOH)][NMeNle][NMeNle]ECG-NH2; thioether N-14)	10 to 99.9 nM
CCCC[C@H]1C(=O)N(C)CC(=O)N[C@@H](CO)C(=O)N[C@@H](C(C)C)C(=O)N(C)[C@@H](Cc2ccccc2)C(=O)N[C@@H](Cc2ccc(O)cc2)C(=O)N2CCCC[C@@H]2C(=O)N[C@@H](Cc2c[nH]c3ccccc23)C(=O)N[C@@H](Cc2ccc(O)cc2)C(=O)N[C@@H](CC(C)C)C(=O)N[C@H](C(=O)NCC(N)=O)CSCC(=O)N[C@@H](Cc2ccccc2)C(=O)N(C)[C@@H](Cc2ccccc2)C(=O)N1C [Example 10065] ({CH2CO}-F[NMeF][NMeNle][Sar]SV[NMeF]Y[dPip]WYLCG-NH2; thioether N-13)	10 to 99.9 nM
CCCC[C@H]1C(=O)N(C)[C@@H](CCCC)C(=O)N[C@@H](C)C(=O)NC(C(=O)NCC(N)=O)CSCC(=O)N[C@@H](Cc2ccc(O)cc2)C(=O)N(C)[C@@H](C)C(=O)N[C@@H](CC(N)=O)C(=O)N2CCC[C@H]2C(=O)N[C@@H](CC(N)=O)C(=O)N[C@@H](CC(C)C)C(=O)N2C[C@H](O)C[C@H]2C(=O)N[C@@H](Cc2c[nH]c3ccccc23)C(=O)N[C@@H](CO)C(=O)N[C@@H](Cc2c[nH]c3ccccc23)C(=O)N1C (stereo partly drawn) [Example 9134]	1 to 9.9 nM
CCCC[C@H]1C(=O)N2CCC[C@@H]2C(=O)N[C@@H](CC(=O)O)C(=O)N[C@@H](C(C)C)C(=O)N(C)[C@@H](Cc2ccccc2)C(=O)N[C@@H](CCC(=O)O)C(=O)N2CCCC[C@@H]2C(=O)N[C@@H](Cc2c[nH]c3ccccc23)C(=O)N[C@@H](Cc2ccc(O)cc2)C(=O)N[C@@H](CC(C)C)C(=O)N[C@H](C(=O)NCC(N)=O)CSCC(=O)N[C@@H](Cc2cc(F)c(F)c(F)c2)C(=O)N(C)[C@@H](Cc2ccc(OC)cc2)C(=O)N1C [Example 10602] ({CH2CO}-[Phe(3,4,5-F3)][NMeY](Me)[NMeNle][dP]DV[NMeF]E[dPip]WYLCG-NH2; thioether N-13)	1 to 9.9 nM
CCCC[C@H]1C(=O)N(C)[C@@H](CCCC)C(=O)N[C@@H](CCC(=O)O)C(=O)N[C@H](C(=O)NCC(N)=O)CSCC(=O)N[C@@H](Cc2ccc(OC)cc2)C(=O)N(C)[C@@H](C)C(=O)N[C@@H](CC(N)=O)C(=O)N2CCC[C@H]2C(=O)N[C@@H](Cc2cnc[nH]2)C(=O)N[C@@H](CCCCN)C(=O)N2C[C@H](O)C[C@H]2C(=O)N[C@@H](Cc2c[nH]c3ccccc23)C(=O)N[C@@H](CCN)C(=O)N[C@@H](Cc2c[nH]c3ccccc23)C(=O)N1C [Example 7118] ({CH2CO}-Y(Me)[NMeA]NPHK[Hyp]W[Dab]W[NMeNle][NMeNle]ECG-NH2; thioether N-14)	1 to 9.9 nM
CCCC[C@H]1C(=O)N(C)[C@@H](CCCC)C(=O)N[C@@H](CCCNC(=N)N)C(=O)NC(C(=O)NCC(N)=O)CSCC(=O)N[C@@H](Cc2ccc(O)cc2)C(=O)N(C)[C@@H](C)C(=O)N[C@@H](Cc2cnc[nH]2)C(=O)N2CCC[C@H]2C(=O)N[C@@H](CC(N)=O)C(=O)N[C@@H](CC(C)C)C(=O)N2C[C@H](O)C[C@H]2C(=O)N[C@@H](Cc2c[nH]c3ccccc23)C(=O)N[C@@H](CO)C(=O)N[C@@H](Cc2csc3ccccc23)C(=O)N1C (stereo partly drawn) [Example 9147] ({CH2CO}-Y[NMeA]HPNL[Hyp]WS[Bta][NMeNle][NMeNle]R[ξC]G-NH2; thioether N-14)	1 to 9.9 nM

Continued, values first:

IC50	SMILES
1 to 9.9 nM	CCCC[C@H]1C(=O)N(C)[C@@H](CCCC)C(=O)N[C@@H](CCC(=O)O)C(=O)NC(C(=O)NCC(N)=O)CSCC(=O)N[C@@H](Cc2ccc(O)cc2)C(=O)N(C)[C@@H](C)C(=O)N[C@@H](CC(N)=O)C(=O)N2CCC[C@H]2C(=O)N[C@@H](CC(N)=O)C(=O)N[C@@H](CC(C)C)C(=O)N2C[C@H](O)C[C@H]2C(=O)N[C@@H](Cc2c[nH]c3ccccc23)C(=O)N[C@@H](CCN)C(=O)N[C@@H](Cc2c[nH]c3ccccc23)C(=O)N1C (stereo partly drawn) [Example 9181] ({CH2CO}-Y[NMeA]NPNL[Hyp]W[Dab]W[NMeNle][NMeNle]E[ξC]G-NH2; thioether N-14)
1 to 9.9 nM	CCCC[C@H]1C(=O)N(C)[C@@H](CCCC)C(=O)N[C@@H](C)C(=O)N[C@H](C(=O)NCC(N)=O)CSCC(=O)N[C@@H](Cc2ccc(O)cc2)C(=O)N2CCCC[C@H]2C(=O)N[C@@H](CC(=O)O)C(=O)N2CCC[C@H]2C(=O)N[C@@H](Cc2cnc[nH]2)C(=O)N[C@@H](CCC(N)=O)C(=O)N2C[C@H](O)C[C@H]2C(=O)N[C@@H](Cc2c[nH]c3ccccc23)C(=O)N[C@@H](CO)C(=O)N[C@@H](Cc2c[nH]c3ccccc23)C(=O)N1C [Example 1261] ({CH2CO}-Y[Pip]DPHQ[Hyp]WSW[NMeNle][NMeNle]ACG-NH2; thioether N-14)
1 to 9.9 nM	COCC[C@H]1C(=O)N2C[C@@H](O)C[C@@H]2C(=O)N[C@@H](CC(=O)O)C(=O)N[C@@H](C(C)C)C(=O)N(C)[C@@H](Cc2ccccc2)C(=O)N[C@@H](CCC(N)=O)C(=O)N2CCOC[C@@H]2C(=O)N[C@@H](Cc2c[nH]c3ccccc23)C(=O)N[C@@H](Cc2ccc(O)cc2)C(=O)N[C@@H](CC(C)C)C(=O)N[C@H](C(=O)NCC(N)=O)CSCC(=O)N[C@@H](Cc2cc(F)c(F)c(F)c2)C(=O)N(C)[C@@H](Cc2ccccc2)C(=O)N1C [Example 9266] ({CH2CO}-[Phe(3,4,5-F3)][NMeF][NMehSer](Me)[dHyp]DV[NMeF]Q[X1]WYLCG-NH2; thioether N-13)
1 to 9.9 nM	CCCC[C@H]1C(=O)N2CCC[C@@H]2C(=O)N[C@@H](CC(=O)O)C(=O)N[C@@H](C(C)(C)C)C(=O)N(C)[C@@H](Cc2ccccc2)C(=O)N[C@@H](Cc2ccc(O)cc2)C(=O)N2CCOC[C@@H]2C(=O)N[C@@H](Cc2c[nH]c3ccccc23)C(=O)N[C@@H](Cc2ccc(O)cc2)C(=O)N[C@@H](CC(C)C)C(=O)N[C@H](C(=O)NCC(N)=O)CSCC(=O)N[C@@H](Cc2cc(F)c(F)c(F)c2)C(=O)N(C)[C@@H](Cc2ccccc2)C(=O)N1C [Example 3223] ({CH2CO}-[Phe(3,4,5-F3)][NMeF][NMeNle][dP]D[Tle][NMeF]Y[X1]WYLCG-NH2; thioether N-13)
1 to 9.9 nM	CCCC[C@H]1C(=O)N2C[C@H](O)C[C@@H]2C(=O)N[C@@H](CC(=O)O)C(=O)N[C@@H](C(C)C)C(=O)N(C)[C@@H](Cc2ccccc2)C(=O)N[C@@H](CCC(N)=O)C(=O)N2C[C@H](O)C[C@@H]2C(=O)N[C@@H](Cc2c[nH]c3ccccc23)C(=O)N[C@@H](Cc2ccc(O)cc2)C(=O)N[C@@H](CC(C)C)C(=O)N[C@H](C(=O)NCC(N)=O)CSCC(=O)N[C@@H](Cc2cc(F)c(F)c(F)c2)C(=O)N(C)[C@@H](Cc2ccccc2)C(=O)N1C [Example 9320] ({CH2CO}-[Phe(3,4,5-F3)][NMeF][NMeNle][d(cisHyp)]DV[NMeF]Q[d(cisHyp)]WYLCG-NH2; thioether N-13)

Same assay, conditions: PD-L1-His 10 nM, PD-1-Ig 20 nM; read-out: HTRF Human PD-L1/PD-1 Binding Assay IC50

IC50	SMILES
1000 nM	CCCC[C@H]1C(=O)N(C)[C@@H](CCCC)C(=O)N[C@@H](CCC(=O)O)C(=O)N[C@H](C(=O)NCC(N)=O)CSCC(=O)N[C@@H](Cc2ccc(OC)cc2)C(=O)N(C)[C@@H](C)C(=O)N[C@@H](CCN)C(=O)N2CCC[C@H]2C(=O)N[C@@H](CN)C(=O)N[C@@H](CCCCN)C(=O)N2C[C@H](O)C[C@H]2C(=O)N[C@@H](Cc2c[nH]c3ccccc23)C(=O)N[C@@H](CC(=O)O)C(=O)N[C@@H](Cc2c[nH]c3ccccc23)C(=O)N1C [Example 7116] ({CH2CO}-Y(Me)[NMeA][Dab]P[Dap]K[Hyp]WDW[NMeNle][NMeNle]ECG-NH2; thioether N-14)
364 nM	CCCC[C@H]1C(=O)N(C)[C@@H](CCCC)C(=O)N[C@@H](CCC(=O)O)C(=O)NC(C(=O)NCC(N)=O)CSCC(=O)N[C@@H](Cc2ccc(O)cc2)C(=O)N(C)[C@@H](C)C(=O)N[C@@H](CC(N)=O)C(=O)N2CCC[C@H]2C(=O)N[C@@H](Cc2c[nH]cn2)C(=O)N[C@@H](CC(N)=O)C(=O)N2C[C@H](O)C[C@H]2C(=O)N[C@@H](Cc2c[nH]c3ccccc23)C(=O)N[C@@H](CC(=O)O)C(=O)N[C@@H](Cc2c[nH]c3ccccc23)C(=O)N1C (stereo partly drawn) [Example 9175] ({CH2CO}-Y[NMeA]NPHN[Hyp]WDW[NMeNle][NMeNle]E[ξC]G-NH2; thioether N-14)
